Laboratory results taken from patent US20230265151A1, “GIP/GLP1 CO-AGONIST COMPOUNDS” (priority 2020, published 2023).
Read-outs that look alike come from different tables or passages of the source. *1 amine or outer side, *2 acyl side, *3 side chain or, on linkers, in order; H or OH if unused. Where a SMILES comes first, the peptide text is derived from it. Side-chain parts run from the residue outwards. [ ]: non-standard residue; d: D form. The star is where a group is joined. αMePhe(2-F) = C[C@](N)(Cc1ccccc1F)C(=O)O; γGlu = O=C(O)[C@H](CCC(=O)[*:2])N[*:1]; C14 diacid = O=C(O)CCCCCCCCCCCCC(=O)*; αMeY = C[C@](N)(Cc1ccc(O)cc1)C(=O)O; 4Pal = N[C@@H](Cc1ccncc1)C(=O)O; αMeL = CC(C)C[C@](C)(N)C(=O)O; Orn = NCCC[C@H](N)C(=O)O; AEEA = NCCOCCOCC(=O)O; Aib = CC(C)(N)C(=O)O

Columns and labels:
Type in all cases: cell-based
hGCGR = target: T1, hGCGR (Homo sapiens, UniProt P47871); assay: Functional cAMP formation (HTRF) in HEK-293 clonal cells expressing hGCGR, 0.1% bovine casein, without or with 1.0% human serum albumin; settings: read-out: hGCGR EC50, nM (SEM, n)
T1 construct: expressed in transfected cells
T1 sequence (P47871 26-477): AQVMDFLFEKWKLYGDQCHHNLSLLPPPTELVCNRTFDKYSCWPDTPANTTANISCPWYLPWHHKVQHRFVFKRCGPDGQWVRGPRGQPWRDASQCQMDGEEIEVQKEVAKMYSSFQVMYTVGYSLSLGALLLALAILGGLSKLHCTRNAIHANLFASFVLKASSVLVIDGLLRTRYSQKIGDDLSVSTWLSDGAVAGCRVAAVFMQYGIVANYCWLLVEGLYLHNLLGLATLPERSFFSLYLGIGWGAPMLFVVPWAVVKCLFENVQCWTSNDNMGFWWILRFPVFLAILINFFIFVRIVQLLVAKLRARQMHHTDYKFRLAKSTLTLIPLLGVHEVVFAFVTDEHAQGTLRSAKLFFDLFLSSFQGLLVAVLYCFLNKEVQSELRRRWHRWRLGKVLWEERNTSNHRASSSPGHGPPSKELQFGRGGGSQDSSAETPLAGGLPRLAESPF
Outline: (§1)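 Readings of the HTRF 665/620 nm ratio, which falls as cAMP rises, were converted to nM cAMP using a standard curve after 30 min peptide exposure at 37° C.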

hGLP-1R = hGLP-1R (Homo sapiens, UniProt P43220); assay: Functional cAMP formation (HTRF) in HEK-293 clonal cells expressing hGLP-1R, 0.1% bovine casein, without or with 1.0% human serum albumin; set-up: expressed in transfected cells; settings: for Emax: read-out: hGLP-1R Emax, % ± SEM; for EC50: read-out: hGLP-1R EC50, nM (SEM, n)
Chain of hGLP-1R (P43220 24-463): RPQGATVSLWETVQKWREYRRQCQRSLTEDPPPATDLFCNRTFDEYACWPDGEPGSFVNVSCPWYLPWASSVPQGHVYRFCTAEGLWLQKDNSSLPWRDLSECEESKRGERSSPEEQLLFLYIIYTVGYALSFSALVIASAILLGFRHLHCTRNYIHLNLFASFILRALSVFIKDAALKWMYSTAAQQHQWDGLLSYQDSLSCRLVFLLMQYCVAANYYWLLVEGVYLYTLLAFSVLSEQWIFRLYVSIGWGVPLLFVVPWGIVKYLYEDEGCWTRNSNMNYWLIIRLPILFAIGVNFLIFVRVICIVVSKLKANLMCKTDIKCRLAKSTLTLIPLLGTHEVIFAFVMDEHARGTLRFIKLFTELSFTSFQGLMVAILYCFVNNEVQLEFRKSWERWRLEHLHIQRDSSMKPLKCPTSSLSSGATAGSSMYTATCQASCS
Outline: as §1

hGIPR = target: T2, hGIPR (Homo sapiens, UniProt P48546); assay: Functional cAMP formation (HTRF) in HEK-293 clonal cells expressing hGIPR, 0.1% bovine casein, without or with 1.0% human serum albumin; settings: for Emax: read-out: hGIPR Emax, % ± SEM; for EC50: geometric mean, read-out: hGIPR EC50, nM (SEM, n)
T2 construct: expressed in transfected cells
T2 sequence (P48546 22-466): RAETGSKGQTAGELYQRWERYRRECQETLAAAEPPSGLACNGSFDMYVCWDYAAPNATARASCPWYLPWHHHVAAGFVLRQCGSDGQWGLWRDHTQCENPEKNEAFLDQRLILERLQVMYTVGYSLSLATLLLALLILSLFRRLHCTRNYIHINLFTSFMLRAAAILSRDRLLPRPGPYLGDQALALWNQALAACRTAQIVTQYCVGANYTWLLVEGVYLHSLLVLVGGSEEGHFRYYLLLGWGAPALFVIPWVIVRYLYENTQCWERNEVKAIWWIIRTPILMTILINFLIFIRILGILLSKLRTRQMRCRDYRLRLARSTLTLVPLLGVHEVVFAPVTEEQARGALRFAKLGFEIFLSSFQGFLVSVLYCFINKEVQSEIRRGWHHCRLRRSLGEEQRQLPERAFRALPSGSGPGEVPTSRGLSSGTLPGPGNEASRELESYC
Outline: as §1

[1] = 0.1% bovine casein and 1.0% human serum albumin, 37° C., geometric mean
[2] = cAMP, incubated at 37° C., 0.1% bovine casein (no human serum albumin), geometric mean
[3] = HEK293, 0.1% bovine casein and 1.0% human serum albumin, 37° C., percent of maximal response to GLP-1(7-36)NH2
[4] = HEK293, percent of maximal response to GLP-1(7-36)NH2, 37° C., 0.1% bovine casein, arithmetic mean
[5] = HEK293, 0.1% bovine casein and 1.0% human serum albumin, 37° C., percent of maximal response to GIP(1-42)NH2
[6] = HEK293, percent of maximal response to GIP(1-42)NH2, 37° C., 0.1% bovine casein, arithmetic mean
[7] = cAMP, incubated at 37° C., 0.1% bovine casein (no human serum albumin)
[8] = cAMP, 37° C., 0.1% bovine casein (no human serum albumin), geometric mean
[9] = cAMP, 37° C., 0.1% bovine casein and 1.0% human serum albumin, geometric mean (SEM, n)

Row | EC50 (hGLP-1R; [1]) [nM] | EC50 (hGIPR; 0.1% bovine casein and 1.0% human serum albumin, 37° C.) [nM] | Structure (SMILES) | EC50 (hGCGR; [1]) [nM] | EC50 (hGCGR; [2]) [nM] | Emax (hGLP-1R; [3]) [%] | Emax (hGLP-1R; [4]) [%] | EC50 (hGLP-1R; [2]) [nM] | Emax (hGIPR; [5]) [%] | Emax (hGIPR; [6]) [%] | EC50 (hGIPR; [7]) [nM] | EC50 (hGCGR; [8]) [nM] | EC50 (hGCGR; [9]) [nM] | Emax (hGLP-1R; HEK293, cAMP, 37° C., 0.1% bovine casein, percent of maximal response to GLP-1(7-36)NH2, arithmetic mean) [%] | EC50 (hGLP-1R; [8]) [nM] | EC50 (hGLP-1R; [9]) [nM] | Emax (hGIPR; HEK293, cAMP, 37° C., 0.1% bovine casein and 1.0% human serum albumin, percent of maximal response to GIP(1-42)NH2) [%] | EC50 (hGIPR; cAMP, 37° C., 0.1% bovine casein (no human serum albumin)) [nM]
1 | – | – | CC[C@H](C)[C@H](NC(=O)[C@H](CCCN)NC(=O)[C@H](CC(=O)O)NC(=O)[C@H](CC(C)C)NC(=O)[C@](C)(CC(C)C)NC(=O)[C@@H](NC(=O)[C@H](CO)NC(=O)[C@H](Cc1ccncc1)NC(=O)[C@H](CC(=O)O)NC(=O)[C@H](CO)NC(=O)[C@@H](NC(=O)[C@](C)(Cc1ccccc1F)NC(=O)[C@@H](NC(=O)CNC(=O)[C@H](CCC(=O)O)NC(=O)C(C)(C)NC(=O)[C@@H](N)Cc1ccc(O)cc1)[C@@H](C)O)[C@@H](C)O)[C@@H](C)CC)C(=O)N[C@@H](C)C(=O)N[C@@H](CCC(N)=O)C(=O)NC(C)(C)C(=O)N[C@@H](CCCCNC(=O)COCCOCCNC(=O)COCCOCCNC(=O)COCCOCCNC(=O)CC[C@H](NC(=O)CCCCCCCCCCCCC(=O)O)C(=O)O)C(=O)N[C@@H](Cc1ccccc1)C(=O)N[C@H](C(=O)N[C@H](CCC(=O)O)C(=O)N[C@@](C)(Cc1ccc(O)cc1)C(=O)N[C@@H](CC(C)C)C(=O)N[C@H](C(=O)N[C@@H](CCC(=O)O)C(=O)NCC(=O)NCC(=O)N1CCC[C@H]1C(=O)N[C@@H](CO)C(=O)N[C@@H](CO)C(=O)NCC(=O)N[C@@H](C)C(=O)N1CCC[C@H]1C(=O)N1CCC[C@H]1C(=O)N1CCC[C@H]1C(=O)N[C@@H](CO)C(=O)N[C@@H](CCCCNC(=O)COCCOCCNC(=O)COCCOCCNC(=O)COCCOCCNC(=O)CC[C@H](NC(=O)CCCCCCCCCCCCC(=O)O)C(=O)O)C(N)=O)[C@@H](C)CC)[C@@H](C)CC [Example 228] | > 9950 | > 9950 | 119 | 91.1 | 1.34 | 83.3 | 110 | 0.0232 | – | – | – | – | – | – | –
2 | – | – | CCCCCCCCCCCC(=O)N[C@@H](CCC(=O)NCCOCCOCC(=O)NCCOCCOCC(=O)NCCCC[C@H](NC(=O)[C@H](CCCN)NC(=O)[C@H](CC(=O)O)NC(=O)[C@H](CC(C)C)NC(=O)[C@](C)(CC(C)C)NC(=O)[C@@H](NC(=O)C(C)(C)NC(=O)[C@H](Cc1ccncc1)NC(=O)[C@H](CC(=O)O)NC(=O)[C@H](CO)NC(=O)[C@@H](NC(=O)[C@](C)(Cc1ccccc1F)NC(=O)[C@@H](NC(=O)CNC(=O)[C@H](CCC(=O)O)NC(=O)C(C)(C)NC(=O)[C@@H](N)Cc1ccc(O)cc1)[C@@H](C)O)[C@@H](C)O)[C@@H](C)CC)C(=O)N[C@@H](C)C(=O)N[C@@H](CCC(N)=O)C(=O)NC(C)(C)C(=O)N[C@@H](CCCCNC(=O)COCCOCCNC(=O)COCCOCCNC(=O)CC[C@H](NC(=O)CCCCCCCCCCC)C(=O)O)C(=O)N[C@@H](Cc1ccccc1)C(=O)N[C@H](C(=O)N[C@H](CCC(=O)O)C(=O)N[C@@](C)(Cc1ccc(O)cc1)C(=O)N[C@@H](CC(C)C)C(=O)N[C@H](C(=O)N[C@@H](CCCN)C(=O)NCC(=O)NCC(=O)N1CCC[C@H]1C(=O)N[C@@H](CO)C(=O)N[C@@H](CO)C(=O)NCC(=O)N[C@@H](C)C(=O)N1CCC[C@H]1C(=O)N1CCC[C@H]1C(=O)N1CCC[C@H]1C(=O)N[C@@H](CO)C(N)=O)[C@@H](C)CC)[C@@H](C)CC)C(=O)O [Example 413] | – | – | – | – | – | – | – | – | > 9950 | > 9950 | 96.9 | 0.234 | 5.47 | 91.8 | 0.0146
3 | – | – | CC[C@H](C)[C@H](NC(=O)[C@H](CC(C)C)NC(=O)[C@](C)(Cc1ccc(O)cc1)NC(=O)[C@@H](CCC(=O)O)NC(=O)[C@@H](NC(=O)[C@H](Cc1ccccc1)NC(=O)[C@H](CCC(=O)O)NC(=O)C(C)(C)NC(=O)[C@H](CCC(N)=O)NC(=O)[C@H](C)NC(=O)[C@H](CCCCNC(=O)COCCOCCNC(=O)COCCOCCNC(=O)CC[C@H](NC(=O)CCCCCCCCCCCCC(=O)O)C(=O)O)NC(=O)[C@H](CCCN)NC(=O)[C@H](CC(=O)O)NC(=O)[C@H](CC(C)C)NC(=O)[C@](C)(CC(C)C)NC(=O)[C@@H](NC(=O)[C@H](CO)NC(=O)[C@H](Cc1cscn1)NC(=O)[C@H](CC(=O)O)NC(=O)[C@H](CO)NC(=O)[C@@H](NC(=O)[C@](C)(Cc1ccccc1F)NC(=O)[C@@H](NC(=O)CNC(=O)[C@H](CCC(=O)O)NC(=O)C(C)(C)NC(=O)[C@@H](N)Cc1ccc(O)cc1)[C@@H](C)O)[C@@H](C)O)[C@@H](C)CC)[C@@H](C)CC)C(=O)N[C@@H](CCC(=O)O)C(=O)NCC(=O)NCC(=O)N[C@@H](CCCCNC(=O)COCCOCCNC(=O)COCCOCCNC(=O)CC[C@H](NC(=O)CCCCCCCCCCCCC(=O)O)C(=O)O)C(=O)N[C@@H](CO)C(=O)N[C@@H](CO)C(=O)NCC(=O)N[C@@H](C)C(=O)N1CCC[C@H]1C(=O)N1CCC[C@H]1C(=O)N1CCC[C@H]1C(=O)N[C@@H](CO)C(N)=O [Example 144] | – | > 9950 | – | 97 | 3.47 | – | 90 | 0.0193 | – | – | – | – | – | – | –
4 | 66.6 | 1.22 | CC[C@H](C)[C@H](NC(=O)[C@H](CC(C)C)NC(=O)[C@](C)(Cc1ccc(O)cc1)NC(=O)[C@@H](CCC(=O)O)NC(=O)[C@@H](NC(=O)[C@H](Cc1ccccc1)NC(=O)[C@H](CCC(=O)O)NC(=O)C(C)(C)NC(=O)[C@H](CCC(N)=O)NC(=O)[C@H](C)NC(=O)[C@H](CCCCNC(=O)COCCOCCNC(=O)COCCOCCNC(=O)CC[C@H](NC(=O)CCCCCCCCCCCCC(=O)O)C(=O)O)NC(=O)[C@H](CCCN)NC(=O)[C@H](CC(=O)O)NC(=O)[C@H](CC(C)C)NC(=O)[C@](C)(CC(C)C)NC(=O)[C@@H](NC(=O)[C@H](CO)NC(=O)[C@H](Cc1ccncc1)NC(=O)[C@H](CC(=O)O)NC(=O)[C@H](CO)NC(=O)[C@@H](NC(=O)[C@](C)(Cc1ccccc1F)NC(=O)[C@@H](NC(=O)CNC(=O)[C@H](CCC(=O)O)NC(=O)C(C)(C)NC(=O)[C@@H](N)Cc1ccc(O)cc1)[C@@H](C)O)[C@@H](C)O)[C@@H](C)CC)[C@@H](C)CC)C(=O)N[C@@H](CCC(=O)O)C(=O)NCC(=O)NCC(=O)N[C@@H](CCCCNC(=O)COCCOCCNC(=O)COCCOCCNC(=O)CC[C@H](NC(=O)CCCCCCCCCCCCC(=O)O)C(=O)O)C(=O)N[C@@H](CO)C(=O)N[C@@H](CO)C(=O)NCC(N)=O [Example 183] (H-Y[Aib]EGT[αMePhe(2-F)]TSD[4Pal]SI[αMeL]LD[Orn]K([AEEA-AEEA-γGlu-C14 diacid])AQ[Aib]EFI[dE][αMeY]LIEGGK([AEEA-AEEA-γGlu-C14 diacid])SSG-NH2) | > 9950 | > 9950 | 97.3 | 93.9 ± 4.99 | 1.37 | 75.5 | 93.5 ± 1.46 | 0.0326 | – | – | – | – | – | – | –
